This note sets out measurements from publication PMC10344917, “Affinity and cooperativity modulate ternary complex formation to drive targeted protein degradation” (Nature Communications, 2023).

Structures are written as SMILES. Where two headings read alike, the source gives them in different places.

Data set [1] concerns the target T1, VBC / SMARCA2^BD ternary complex (Homo sapiens, UniProt P40337+P51531).
T1 construct: VHL (54-213), ElonginB (17-112) ElonginC (1-104); SMARCA2^BD 1373–1511 ∆1400–1417; His6 (N, cleaved yes); made in house
Nature of the data set: SPR ternary complex binding, VBC surface with preformed PROTAC/SMARCA2 bromodomain complex. As for the experimental part:
(§1) SPR experiments were performed on a Biacore 8 K or T200 instrument (Cytiva). […] The running buffer during immobilization was PBS with 0.005% P20. Either high-density (3000-4000 RU) or low-density (300-400 RU) VBC-functionalized surfaces were created, followed by equilibration in the running buffer for 3 h.
(§2) PROTACs (10 mM in 100% DMSO) were initially prepared at 200 nM in a running buffer (20 mM Tris pH 8.0, 250 mM NaCl, 1 mM TCEP, 0.01% P20, 0.2 mg/ml BSA) with a concentration of 2% DMSO. This solution was mixed at 1:1 ratio with a solution of 5 μM of the SMARCA2 or BRD4 bromodomain protein in the running buffer. This complex was then serially diluted in the running buffer containing 2.5 μM SMARCA2 or BRD4 and 2% DMSO (5-point five-fold serial dilution). For ternary experiments, solutions were injected sequentially in single-cycle kinetic format without regeneration (contact time 60 s, flow rate 80 μL/min, dissociation time 300 s) using a stabilization period of 60 s and syringe wash (50% DMSO) between injections onto a low-density VBC-functionalized surface.
(§3) Raw sensorgrams were processed by performing double reference subtraction, solvent correction, and analysis was done using Biacore Insight Evaluation Software. Kinetic analysis was performed by fitting data to a 1:1 Langmuir interaction model and a steady-state affinity model was used to evaluate equilibrium binding affinity.

In data set [2] the target is T2, SMARCA2 (Homo sapiens, UniProt P51531).
T2 construct: endogenous in cells; host or cells: A375
Nature of the data set: SMARCA2 degradation time course in A375 cells (MSD). The following applies: single concentration at or near maximal activity. Format: cell-based. An excerpt: This characteristic has been described as cooperativity (α > 1) and likely results from favorable PPIs present in the ternary complex. […] To measure the rate of protein degradation, we treated A375 cells with a single concentration of each PROTAC and measured the decrease in target abundance over time as shown in Figs. 4b and5b.
(§4) MSD electrochemiluminescence signals were subtracted by the average background signal from wells with lysis buffer alone. Normalized MSD values (POC) for individual compound treated wells were acquired by dividing background-subtracted assay signal by signal from vehicle control wells (cells + 0.1% DMSO) and multiplying by 100. This POC data was graphed using a nonlinear regression curve fit xy analysis and a log(inhibitor) vs response —variable slope (four parameter) model for dose response curves (Graphpad Prism 9, San Diego, CA, USA). To calculate area under the curve, all points on the curve were connected and vertical lines were drawn from each point down to y = 0, generating a series of trapezoids. The area of each trapezoid was determined using the equation A = (1/2)(h)(b1 + b2), where h = 1 (distance between points), b1 = POC of the first point and b2 = POC of the second point. The sum of all trapezoids provides an approximate area under the curve (AUC). For half-life (t1/2) determination in time course studies, a one-phase decay model was used for curve fitting and the time at which the curve crossed 50 POC was determined through interpolation (Graphpad Prism 9, San Diego, CA, USA). Additionally initial rate of degradation was determined by multiplying 100 with rate constant (τ = 0.693/t1/2).

Another data set deals with T3, VHL/EloB/EloC (VBC) (Homo sapiens, UniProt P40337).
T3 construct: VHL (54-213), ElonginB (17-112) ElonginC (1-104); made in house
The experiment in a line: SPR binary binding of PROTAC to VBC-functionalized surface. The following applies: SPR; error SEM, N = 3; read-out: KLP (binary binding affinity between E3 ligase VHL and PROTAC). As for the experimental part: as §1
PROTACs (10 mM stocks in 100% DMSO) were diluted to 400 nM in a running buffer (20 mM Tris pH 7.5, 200 mM NaCl, 0.02% P20). This stock solution was then serially diluted in the running buffer containing final 2% DMSO. […] For SMARCA2 analysis, biotinylated proteins were introduced on a Series S streptavidin (SA) sensor chip at high-density (3000-4000 RU).
as §3

Data set [3] deals with T2, SMARCA2. Nature of the data set: SMARCA2 degradation, MSD assay, dose response. Format: cell-based. Details: key to AUC (area under the dose-response curve): sum of trapezoids of POC vs dose points, h = 1. The procedure: (§5) A375 cells were treated with SMARCA2 or BRD4 degraders for 2 h (4 h for BRD4) and generated lysates. SMARCA2 or BRD4 protein was measured with a variation of a sandwich ELISA that was assembled from commercially available antibodies as well as reagents and instrumentation procured from Meso Scale Discovery (MSD). Degradation parameter, DC50, is not suitable for PROTACs that induce partial/incomplete DR curves at a fixed time point; maximum drop in target protein level (Dmax) >>0. Conversely, the area under the curve (AUC) can be calculated as a degradation activity parameter for any DR curve, and it encompasses both the degradation potency (i.e., DC50) and efficacy (i.e., Dmax) of PROTACs.
(§6) A 1:3 compound dose-response titration was diluted in growth media (1:20), added to appropriate wells of a cell culture plate (1:10) and then assay plates were incubated at 37 °C, 5% CO2.
(§7) Plates were washed with 300 µL per well MSD wash buffer (MSD R61TX-1) between each step. Following the last incubation, plates were washed with MSD wash buffer then 150 µL of MSD read buffer (MSD R92TC-2) was added to each well. Plates were immediately read on a MSD plate reader (MSD Sector Imager 6000).
as §4, with “USA).” for “USA). Additionally initial rate of degradation was determined by multiplying 100 with rate constant (τ = 0.693/t1/2).”

The target in a further data set is T4, SMARCA2^BD (Homo sapiens, UniProt P51531).
T4 construct: SMARCA2^BD 1373–1511 ∆1400–1417; made in house
Nature of the data set: SPR binary binding of PROTAC to SMARCA2-functionalized surface. The following applies: 1:1 Langmuir binding model, SEM N=3 or SD N=2, read-out: KTP (binary affinity PROTAC / SMARCA2). The procedure:
PROTACs (10 mM stocks in 100% DMSO) were diluted to 400 nM in a running buffer (20 mM Tris pH 7.5, 200 mM NaCl, 0.02% P20). This stock solution was then serially diluted in the running buffer containing final 2% DMSO. Solutions were injected in multi-cycle kinetic format without regeneration (contact time 60 s, flow rate 80 μL/min, dissociation time 120 s) using a stabilization period of 30 s and syringe wash (50% DMSO) between injections onto a high-density VBC-functionalized surface. For SMARCA2 analysis, biotinylated proteins were introduced on a Series S streptavidin (SA) sensor chip at high-density (3000-4000 RU).
as §3

A further data set deals with T5, BRD4-NanoLuc (Homo sapiens, UniProt O60885).
T5 construct: expressed in transfected cells; host or cells: HEK293
Nature of the data set: NanoBRET target engagement assay, live and permeabilized HEK293 cells (BRD4). Format: cell-based. The following applies: for IC50: BRD4 NanoBRET TE. The procedure:
We employed a NanoBRET-based target engagement (TE) assay as reported earlier^7 for evaluating PROTACs relative permeability. In summary, live and permeabilized HEK293 cells with SMARCA2 or BRD4-NanoLuc were used for measuring IC50 values of different PROTACs. The relative shift in the IC50 was evaluated as relative binding affinity (RBA) by taking the ratio of IC50 values of live and permeabilized cells. Availability index (AI), which is a surrogate for permeability can be calculated by taking a ratio of RBA of compounds to permeable benchmark molecules.
Relative Binding Affinity (RBA) = Live-cell TE IC50 / Permeabilized-cell TE IC50
Availability Index (AI) = RBAtest cmpd / RBApermeable benchmark
Availability Index (AI) greater than one is indicative of reduced permeability compared to the benchmark.
A general note: Bioluminescence resonance energy transfer reports proximity on the nanometre scale.

Data set [4] concerns the target T6, VBC / BRD4^BD2 ternary complex (Homo sapiens, UniProt O60885+P40337).
T6 construct: VHL (54-213), ElonginB (17-112) ElonginC (1-104); ternary complex formation with both bromodomains, BRD4^BD1 and BRD4^BD2, independently; His6 (N); made in house
Nature of the data set: SPR ternary complex binding, VBC surface with preformed PROTAC/BRD4 BD2 complex. As for the experimental part:
as §1
as §2, with “This complex was then serially diluted in the running buffer containing 2.5 μM SMARCA2 or BRD4 and 2% DMSO (5-point five-fold serial dilution).” left out
as §3

The next data set deals with T7, BRD4^BD2 (Homo sapiens, UniProt O60885).
T7 construct: ternary complex formation with both bromodomains, BRD4^BD1 and BRD4^BD2, independently; made in house
The experiment in a line: SPR binary binding of PROTAC to BRD4^BD2-functionalized surface. The following applies: 1:1 Langmuir binding model, SD N=2.

Data set [5] has as its target T8, BRD4 (Homo sapiens, UniProt O60885).
T8 construct: endogenous in cells; host or cells: A375
The experiment in a line: BRD4 degradation time course in A375 cells (MSD). Format: cell-based. The following applies: single concentration at or near maximal activity.
From the text: To measure the rate of protein degradation, we treated A375 cells with a single concentration of each PROTAC and measured the decrease in target abundance over time as shown in Figs. 4b and5b.
as §4, with “USA).” for “USA). Additionally initial rate of degradation was determined by multiplying 100 with rate constant (τ = 0.693/t1/2).”

The target of data set [6] is T8, BRD4. The experiment in a line: BRD4 degradation, MSD assay, dose response. Format: cell-based. The following applies: A375 cells. Details: AUC (area under the dose-response curve): unit not given beside the values. As for the experimental part:
as §5, §6, §7
as §4, with “USA).” for “USA). Additionally initial rate of degradation was determined by multiplying 100 with rate constant (τ = 0.693/t1/2).”

The target in data set [7] is T9, VBC / BRD4^BD1 ternary complex (Homo sapiens, UniProt O60885+P40337).
T9 construct: VHL (54-213), ElonginB (17-112) ElonginC (1-104); BRD4 (44-168); His6 (N, cleaved yes); made in house
The experiment in a line: SPR ternary complex binding, VBC surface with preformed PROTAC/BRD4 BD1 complex. The procedure: as §1
as §2, with “This complex was then serially diluted in the running buffer containing 2.5 μM SMARCA2 or BRD4 and 2% DMSO (5-point five-fold serial dilution).” left out
as §3

Setting [8] is: SPR, VHL, PROTAC, error SEM, N = 3, read-out: KLPT (ternary complex binding affinity).

T2 sequence (P51531 whole entry): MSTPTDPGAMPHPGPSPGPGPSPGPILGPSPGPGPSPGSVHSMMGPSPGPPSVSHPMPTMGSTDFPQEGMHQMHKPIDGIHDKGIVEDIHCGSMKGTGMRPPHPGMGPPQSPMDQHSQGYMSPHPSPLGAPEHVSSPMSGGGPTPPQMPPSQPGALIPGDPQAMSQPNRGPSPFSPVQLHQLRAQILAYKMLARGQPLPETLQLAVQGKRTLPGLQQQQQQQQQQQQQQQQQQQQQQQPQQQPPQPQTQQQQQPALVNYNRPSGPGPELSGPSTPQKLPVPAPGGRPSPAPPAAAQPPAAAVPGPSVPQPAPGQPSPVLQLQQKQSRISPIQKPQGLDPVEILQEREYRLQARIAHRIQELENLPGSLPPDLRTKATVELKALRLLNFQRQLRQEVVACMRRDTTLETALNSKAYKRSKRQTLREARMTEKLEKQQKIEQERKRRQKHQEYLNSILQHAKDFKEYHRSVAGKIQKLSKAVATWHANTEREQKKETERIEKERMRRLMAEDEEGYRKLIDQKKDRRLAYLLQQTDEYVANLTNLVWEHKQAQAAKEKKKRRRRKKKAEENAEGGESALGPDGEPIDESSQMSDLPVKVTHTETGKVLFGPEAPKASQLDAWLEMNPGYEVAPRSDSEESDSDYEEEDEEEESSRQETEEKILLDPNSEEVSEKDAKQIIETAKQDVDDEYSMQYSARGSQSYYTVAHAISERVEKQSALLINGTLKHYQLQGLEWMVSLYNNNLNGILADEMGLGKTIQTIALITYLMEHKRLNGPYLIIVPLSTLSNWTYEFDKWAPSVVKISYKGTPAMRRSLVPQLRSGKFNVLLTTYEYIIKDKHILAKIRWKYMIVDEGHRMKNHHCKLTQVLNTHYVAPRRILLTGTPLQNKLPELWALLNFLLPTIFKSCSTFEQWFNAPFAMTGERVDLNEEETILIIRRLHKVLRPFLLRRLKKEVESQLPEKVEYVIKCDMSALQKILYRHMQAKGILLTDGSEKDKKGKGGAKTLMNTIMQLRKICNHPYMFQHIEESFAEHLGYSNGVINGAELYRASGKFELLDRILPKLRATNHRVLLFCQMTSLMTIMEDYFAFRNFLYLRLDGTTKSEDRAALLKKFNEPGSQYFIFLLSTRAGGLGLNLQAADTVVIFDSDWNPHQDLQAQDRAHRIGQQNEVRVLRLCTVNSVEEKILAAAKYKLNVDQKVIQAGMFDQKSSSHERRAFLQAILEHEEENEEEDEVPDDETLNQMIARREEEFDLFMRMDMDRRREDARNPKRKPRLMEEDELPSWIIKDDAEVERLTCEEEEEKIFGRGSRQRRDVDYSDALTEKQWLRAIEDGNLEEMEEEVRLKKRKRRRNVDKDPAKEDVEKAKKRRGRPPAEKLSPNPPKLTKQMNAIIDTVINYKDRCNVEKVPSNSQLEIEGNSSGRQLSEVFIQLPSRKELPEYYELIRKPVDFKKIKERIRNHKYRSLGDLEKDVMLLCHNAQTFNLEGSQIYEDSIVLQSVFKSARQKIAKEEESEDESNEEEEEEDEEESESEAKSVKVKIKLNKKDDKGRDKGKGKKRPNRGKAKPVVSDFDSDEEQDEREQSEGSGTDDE
T4 sequence (P51531 1373-1493 isoform P51531-2): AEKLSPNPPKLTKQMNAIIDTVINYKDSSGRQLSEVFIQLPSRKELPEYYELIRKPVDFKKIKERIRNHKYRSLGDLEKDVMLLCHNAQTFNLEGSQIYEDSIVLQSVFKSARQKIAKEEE

Regarding `Cc1ncsc1-c1ccc([C@H](C)NC(=O)[C@@H]2C[C@@H](O)CN2C(=O)[C@@H](NC(=O)c2cccc(N3CCN(c4nc(-c5ccccc5O)nnc4N)CC3)n2)C(C)(C)C)cc1` [Compound 9, 6-(4-(6-Amino-3-(2-hydroxyphenyl)-1,2,4-triazin-5-yl)piperazin-1-yl)-N-((S)-1-((2S,4R)-4-hydroxy-2-(((S)-1-(4-(4-methylthiazol-5-yl)phenyl)ethyl)carbamoyl)pyrrolidin-1-yl)-3,3-dimethyl-1-oxobutan-2-yl)picolinamide], the “α (cooperativity, KLP/KLPT)” value in [1] is listed as 0.32. Further, the Kd in [1] (setting [8]) is 77 ± 8 nM; at VHL/EloB/EloC (VBC), 25 ± 4 nM; on SMARCA2^BD, 294 ± 33 nM. For the same molecule, at SMARCA2 [2], the “Initial Degradation Rate” value was found to be 0.98 %/min. Moreover, at SMARCA2 [3] (2 h MSD assay), the SMARCA2 degradation is ~ 30%. At SMARCA2 [3] (A-375, SMARCA2 degraded, MSD assay, A375 cells, 2 h timepoint), this molecule displayed a Dmax of 74%. The “AUC (area under the dose-response curve)” value on SMARCA2 [3] (SMARCA2 MSD assay, A375 cells, 2 h) amounted to 85. At SMARCA2 [3] (SMARCA2 degradation, MSD assay, A375 cells, 2 h timepoint), the half-maximal degradation concentration (DC50) is 372 nM.

As to `Cc1ncsc1-c1ccc(CNC(=O)[C@@H]2C[C@@H](O)CN2C(=O)[C@@H](NC(=O)COCc2cn(CCNC(=O)C[C@@H]3N=C(c4ccc(Cl)cc4)c4c(sc(C)c4C)-n4c(C)nnc43)nn2)C(C)(C)C)cc1` [Compound 12, (2S,4R)-1-((S)-2-(2-((1-(2-(2-((S)-4-(4-chlorophenyl)-2,3,9-trimethyl-6H-thieno[3,2-f][1,2,4]triazolo[4,3-a][1,4]diazepin-6-yl)acetamido)ethyl)-1H-1,2,3-triazol-4-yl)methoxy)acetamido)-3,3-dimethylbutanoyl)-4-hydroxy-N-(4-(4-methylthiazol-5-yl)benzyl)pyrrolidine-2-carboxamide], the “Availability Index” value on BRD4-NanoLuc (RBA test cmpd / RBA of JQ1 benchmark, surrogate for permeability) was 264.47. Further, the IC50 was 21600 nM on BRD4-NanoLuc (live HEK293 cells, read-out: Live-Cell TE) and 80 nM on BRD4-NanoLuc (permeabilized HEK293 cells, read-out: Permeabilized-Cell TE). For the same molecule, the “α (cooperativity, KLP/KLPT)” value in data set [4] turned out to be 3.7; in [7], 0.7. Also, the Kd was 6 ± 1 nM in [4] (setting [8]), 20.5 ± 1.2 nM on BRD4^BD2, 22 ± 2 nM on VHL/EloB/EloC (VBC) and 31 ± 4 nM in data set [7] (setting [8]). Also, the “Initial Degradation Rate” value on BRD4 [5] amounted to 1.38 %/min. Moreover, the Dmax at BRD4 [6] (A-375, BRD4 degraded, MSD assay, 4 h timepoint) was 91%. In addition, the “AUC (area under the dose-response curve)” value at BRD4 [6] (BRD4 MSD assay, 4 h) turned out to be 192. The molecule also had a half-maximal degradation concentration (DC50) on BRD4 [6] (BRD4 degradation, MSD assay, 4 h timepoint) of 518 nM.

By Dmax is commonly meant the greatest extent of degradation seen. The term DC50 denotes the concentration at which degradation of the target reaches its halfway point.
